Measured values as given in publication PMC12039421 (Animal Cells and Systems, 2025).
pKd: −log10 of the molar value.

Columns and labels:
human ERβ-LBD = human ERβ-LBD (Homo sapiens, UniProt Q92731); assay: Isothermal titration calorimetry; format: binding
human ERα-LBD = target: T1, human ERα-LBD (Homo sapiens, UniProt P03372); assay: biochemical; format: binding
T1 sequence (P03372 304-554): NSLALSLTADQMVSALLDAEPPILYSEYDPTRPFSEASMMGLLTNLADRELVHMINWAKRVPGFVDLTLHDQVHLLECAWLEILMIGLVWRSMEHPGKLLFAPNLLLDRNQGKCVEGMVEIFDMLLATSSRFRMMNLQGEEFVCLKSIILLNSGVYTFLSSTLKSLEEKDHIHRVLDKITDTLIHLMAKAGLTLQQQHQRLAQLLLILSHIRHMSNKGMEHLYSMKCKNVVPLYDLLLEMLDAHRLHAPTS

ERα [1] = conditions: cited from earlier work
ERα [2] = conditions: ref ICCVAM [2003]; cited from earlier work
[3] = ITC, 25 °C, one binding site model

Sequence of human ERβ-LBD (Q92731 264-498): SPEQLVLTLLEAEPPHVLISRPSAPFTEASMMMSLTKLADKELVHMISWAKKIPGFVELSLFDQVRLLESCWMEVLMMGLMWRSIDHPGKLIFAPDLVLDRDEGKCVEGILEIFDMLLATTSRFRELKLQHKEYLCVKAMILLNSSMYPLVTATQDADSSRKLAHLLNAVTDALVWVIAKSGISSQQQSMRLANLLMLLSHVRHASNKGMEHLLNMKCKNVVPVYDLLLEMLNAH

Compound: CC(C)(C)CC(C)(C)c1ccc(O)cc1 [4-tert-Octylphenol]
- pKd (human ERβ-LBD): 4.80

Compound: CCC(C)(c1ccc(O)cc1)c1ccc(O)cc1 [Bisphenol B]
- pKd (human ERβ-LBD): 4.29
- pKd (human ERα-LBD): 3.95

Compound: CC(C)C(=O)Nc1ccc([N+](=O)[O-])c(C(F)(F)F)c1 [Flutamide]
- activity in previous TG 455 (in words) (ERα [1]; previous TG 455, ref Zacharia [2017]): no activity
- Kd (ER β) (human ERβ-LBD; [3]): no binding
- Kd (ER α) (human ERα-LBD; [3]): no binding

Compound: C[C@]12CC[C@H]3[C@@H](CCC4=CC(=O)CC[C@@]43C)[C@@H]1CC[C@@H]2O [testosterone]
- transcriptional response in TG 455 (in words) (ERα [1]; ref ICCVAM [2003]): fails to induce downstream transcriptional responses
- ER binding in TG 493 (in words) (ERα [2]): may bind to the ER
